According to patent publication US3957785A, “Bβ-Pyrimidino-aminomethyl-10α-ergoline and 10α-methoxyergoline derivatives” (priority 1971, dated 1976):
Where “and” joins values, the source holds several entries; their conditions need not be identical. Identical values can stand only once. Like-named read-outs stand apart in the source and are kept apart here.

Legend:
hypertensive rat = experiment: hypotensive activity on the hypertensive rat; type: in vivo; conditions: po, read-out: Hypotensive Activity, Active Dose (dose causing a pressure drop of about 30-40 mmHg)
Protocol: The hypotensive activity was tested on the hypertensive rat; the reported data being the dose, expressed in mg/kg per os, which causes a pressure drop of about 30-40 mmHg.

adrenalin = experiment: submaximal inhibiting dosage protecting 80% of rats against adrenalin injected 8 hours after administration; type: in vivo; conditions: Rattus norvegicus, po, read-out: ID (submaximal inhibiting dosage which protects 80% of the tested animals)
Protocol: This greater stability was confirmed by the determination of the submaximal inhibiting dosage which protects 80% of the tested animals (rats) against a single dose of 200 mg/Kg of body weight of adrenalin injected 8 hours after administration of the tested compounds according to the invention.

[1] = acute toxicity LD50 in rats; conditions: rat, in vivo
[2] = test system: lethal effects caused by adrenaline; experiment: adrenolytic activity in vivo on the rat: reduction of lethal effects caused by adrenaline; conditions: read-out: ID50 (dose reducing by 50% the lethal effects caused by adrenaline)
Protocol: (§1) The adrenolytic activity of the compounds of the invention was also determined in vivo on the rat in comparison with dihydroergotamine and nicergoline. Table 2 reports the doses in mg/kg (ID50) able to reduce by 50% the lethal effects caused by adrenaline after oral (os) and intravenous (i.v.) administration of these compounds as compared with dihydroergotamine and with nicergoline, i.e., 1,6-dimethyl-8 -(5'-bromonicotinoyloxymethyl)-10 -methoxyergoline (Br. J. Pharmac, 34, 700, 1968).

lethal adrenaline dose = experiment: percentage of animals protected against lethal adrenaline dose, hours after administration; type: in vivo, rat
Protocol: as §1
Some of the compounds reported in Table 2 have a long lasting effect of up to 24 hours as shown by the data contained in Table 3.
Percentage of animals protected against lethal adrenaline dose

[3] = analgesic activity, writhing test; type: in vivo; conditions: for Analgesic Activity, Writhing, relative to D-propoxyphene: D-propoxyphene assigned the value of 1; for Analgesic Activity, Writhing, relative to morphine: morphine assigned the value of 1
Protocol: (§2) The analgesic activity was evaluated by means of the hot plate test and the writhing test, the data being given in comparison with morphine and D-propoxyphene.
(§3) In the hot plate and writhing tests, the comparison compounds morphine and D-propoxyphene have been arbitrarily assigned the value of 1. Thus, in the hot plate test, the compound 1,6-dimethyl-8β-(2-pyrimidino-aminomethyl)-10α-ergoline has the same activity as both morphine and D-propoxyphene, while in the writhing test that compound has 1/2 the activity of morphine and 5 times the activity of D-propoxyphene.

[4] = test system: isolated guinea pig seminal vescicle; experiment: inhibition of the spasmogen effect caused by adrenaline on isolated guinea pig seminal vescicle (adrenolytic activity in vitro); set-up: unit: μg/ml; conditions: isolated guinea pig seminal vescicle in physiological solution
Protocol: The compounds of the present invention have a high and prolonged adrenolytic activity and a low toxicity and are therefore useful in therapy. This adrenolytic activity was tested on several of the present compounds in vitro in comparison with dihydroergotamine on isolated guinea pig seminal vescicle suspended in a physiological solution.
Table 1 reports the values of concentrations, in μg/ml., which are able to produce a 50% inhibition (IC50) of the spasmogen effect caused by adrenaline.

[5] = analgesic activity, hot plate test; type: in vivo
Protocol: as §2, §3

[6] = Arcamone et al. Bioch. Pharmac. 21, 2205, 1972; cited from earlier work
[7] = 0.5 mg/Kg per os, 1 hour after administration
[8] = 0.5 mg/Kg per os, 2 hours after administration
[9] = 0.5 mg/Kg per os, 4 hours after administration
[10] = 0.5 mg/Kg per os, 8 hours after administration
[11] = 0.1 mg/Kg per os, 1 hour after administration
[12] = 0.1 mg/Kg per os, 2 hours after administration
[13] = 0.5 mg/Kg per os, 0.5 hours after administration

Structure (SMILES)	ED80 (adrenalin; 8 h) [mg/kg]	LD50 ([1]; iv) [mg/kg]	LD50 ([1]; po, os) [mg/kg]	ED50 ([2]; iv) [mg/kg]	ED50 ([2]; po, os) [mg/kg]	TC50 (concentration producing 50% inhibition (IC50) of the spasmogen effect caused by adrenaline) [4] [μc/ml]	other results
COC12CC(CNc3ncc(C#N)cn3)CN(C)C1Cc1cn(C)c3cccc2c13 (stereo not drawn) [1,6-dimethyl-8β -(5-cyano-2-pyrimidino-aminomethyl)-10α -methoxyergoline]	0.5	38	160	0.015	0.2	0.0001	ED (30-40 mmHg pressure drop) (hypertensive rat; Rattus norvegicus): 1 to 2.5 mg/kg; % survivors (lethal adrenaline dose; 0.2 mg/Kg per os, 2 hours after administration): 100%; % survivors (lethal adrenaline dose; 0.2 mg/Kg per os, 4 hours after administration): 90%; % survivors (lethal adrenaline dose; [7]): 80%; % survivors (lethal adrenaline dose; [8]): 90%; % survivors (lethal adrenaline dose; [9]): 80%; % survivors (lethal adrenaline dose; [10]): 80%; Analgesic Activity, Writhing, relative to D-propoxyphene [3]: 1; Analgesic Activity, Writhing, relative to morphine [3]: 0.2
COC12CC(CNc3ncccn3)CN(C)C1Cc1cn(C)c3cccc2c13 (stereo not drawn) [1,6-dimethyl-8β -(2-pyrimidino-aminomethyl)-10α -methoxyergoline]	–	25	250	0.2	1	0.005	–
CN1CC(CNc2ncccn2)CC2c3cccc4c3c(cn4C)CC21 (stereo not drawn) [1,6-dimethyl-8β-(2-pyrimidino-aminomethyl)-10α -ergoline]	–	–	–	–	–	–	ED (30-40 mmHg pressure drop) (hypertensive rat; hypertensive rat, per os): 5 to 10 mg/kg; Analgesic Activity, Writhing, relative to D-propoxyphene [3]: 5; Analgesic Activity, Writhing, relative to morphine [3]: 0.5 and 1/2
COC12CC(CNc3ncc(C)cn3)CN(C)C1Cc1cn(C)c3cccc2c13 (stereo not drawn) [1,6-dimethyl-8β-(5-methyl-2-pyrimidino-aminomethyl)-10α -methoxyergoline]	–	18	–	0.1	0.1	0.001	–
Cc1cnc(NCC2CC3c4cccc5c4c(cn5C)CC3N(C)C2)nc1 (stereo not drawn) [1,6-dimethyl-8β-(5-methyl-2-pyrimidino-aminomethyl)-10 α-ergoline]	–	35	140	0.15	0.1	–	ED (30-40 mmHg pressure drop) (hypertensive rat; hypertensive rat, per os): 5 to 10 mg/kg; Analgesic Activity, Writhing, relative to D-propoxyphene [3]: 5; Analgesic Activity, Writhing, relative to morphine [3]: 0.5; Analgesic Activity, Hot plate, relative to D-propoxyphene ([5]; D-propoxyphene assigned the value of 1): 5; Analgesic Activity, Hot plate, relative to morphine ([5]; morphine assigned the value of 1): 1
CN1CC(CNc2ncc(N)cn2)CC2c3cccc4c3c(cn4C)CC21 (stereo not drawn) [1,6-dimethyl-8β-(5-amino-2-pyrimidino-aminomethyl)-10α-ergoline]	1	18	140	0.18	0.5	–	–
CN1C[C@H](C(=O)N[C@]2(C)O[C@@]3(O)[C@@H]4CCCN4C(=O)[C@H](Cc4ccccc4)N3C2=O)C[C@@H]2c3cccc4[nH]cc(c34)C[C@H]21 [dihydroergotamine, reference compound]	> 20	–	–	0.08	15	0.015	–
CN1CC(CNc2ncc(Cl)cn2)CC2c3cccc4c3c(cn4C)CC21 (stereo not drawn) [1,6-dimethyl-8β-(5-chloro-2-pyrimidino-aminomethyl)-10α -ergoline]	1	–	–	–	0.14	–	–
CN1CC(CNc2ncc(C#N)cn2)CC2c3cccc4c3c(cn4C)CC21 (stereo not drawn) [1,6-dimethyl-8β-(5-cyano-2-pyrimidino-aminomethyl)-10α -ergoline]	–	25	35	0.05	0.05	0.005	ED (30-40 mmHg pressure drop) (hypertensive rat; Rattus norvegicus): 2.5 to 5 mg/kg
CO[C@]12C[C@@H](COC(=O)c3cncc(Br)c3)CN(C)[C@@H]1Cc1cn(C)c3cccc2c13 [nicergoline, 1,6-dimethyl-8β-(5'-bromonicotinoyloxymethyl) 10α-methoxyergoline, reference compound]	–	–	–	0.024	7	–	ED80 (adrenalin; peros in rats after 8 hours, single dose of 200 mg/Kg adrenalin): > 20 mg/kg; metabolism in the presence of blood in vitro [6]: rapidly metabolized
Cc1cc(C)nc(NCC2CC3c4cccc5c4c(cn5C)CC3N(C)C2)n1 (stereo not drawn) [1,6-dimethyl-8β(4,6-dimethyl-2-pyrimidino-aminomethyl)-10α -ergoline]	–	–	–	–	1.25	–	% survivors (lethal adrenaline dose; 2.5 mg/Kg per os, 1 hour after administration): 80%; % survivors (lethal adrenaline dose; 2.5 mg/Kg per os, 2 hours after administration): 60%; % survivors (lethal adrenaline dose; 2.5 mg/Kg per os, 4 hours after administration): 30%; % survivors (lethal adrenaline dose; 5 mg/Kg per os, 1 hour after administration): 100%; % survivors (lethal adrenaline dose; 5 mg/Kg per os, 2 hours after administration): 80%; % survivors (lethal adrenaline dose; 5 mg/Kg per os, 4 hours after administration): 50%; % survivors (lethal adrenaline dose; 5 mg/Kg per os, 8 hours after administration): 20%; % survivors (lethal adrenaline dose; 10 mg/Kg per os, 1 hour after administration): 100%; % survivors (lethal adrenaline dose; 10 mg/Kg per os, 2 hours after administration): 100%; % survivors (lethal adrenaline dose; 10 mg/Kg per os, 4 hours after administration): 60%
COC12CC(CNc3ncc([N+](=O)[O-])cn3)CN(C)C1Cc1cn(C)c3cccc2c13 (stereo not drawn) [1,6-dimethyl-8β-(5-nitro-2-pyrimidino-aminomethyl)-10α -methoxyergoline]	–	28	200	0.2	< 0.1	0.001	ED (30-40 mmHg pressure drop) (hypertensive rat; Rattus norvegicus): 1 to 2.5 mg/kg; % survivors (lethal adrenaline dose; [11]): 70%; % survivors (lethal adrenaline dose; [12]): 80%; % survivors (lethal adrenaline dose; [13]): 100%; % survivors (lethal adrenaline dose; [8]): 100%; % survivors (lethal adrenaline dose; [9]): 90%; % survivors (lethal adrenaline dose; [10]): 40%
COC12CC(CNc3ncc(Br)cn3)CN(C)C1Cc1cn(C)c3cccc2c13 (stereo not drawn) [1,6-dimethyl-8β -(5-bromo-2-pyrimidino-aminomethyl)-10α -methoxyergoline]	–	50	230	0.08	0.32	0.005	–
CN1CC(CNc2ncc([N+](=O)[O-])cn2)CC2c3cccc4c3c(cn4C)CC21 (stereo not drawn) [1,6-dimethyl-8β-(5-nitro-2-pyrimidino-aminomethyl)-10α -ergoline]	0.5	–	–	0.09	0.04	0.007	% survivors (lethal adrenaline dose; 0.1 mg/Kg per os, 0.5 hours after administration): 50%; % survivors (lethal adrenaline dose; [11]): 90%; % survivors (lethal adrenaline dose; [12]): 60%; % survivors (lethal adrenaline dose; 0.1 mg/Kg per os, 4 hours after administration): 70%; % survivors (lethal adrenaline dose; 0.1 mg/Kg per os, 8 hours after administration): 60%; % survivors (lethal adrenaline dose; 0.1 mg/Kg per os, 16 hours after administration): 10%; % survivors (lethal adrenaline dose; [13]): 100%; % survivors (lethal adrenaline dose; [7]): 100%; % survivors (lethal adrenaline dose; [8]): 100%; % survivors (lethal adrenaline dose; [9]): 90%; % survivors (lethal adrenaline dose; [10]): 80%; % survivors (lethal adrenaline dose; 0.5 mg/Kg per os, 16 hours after administration): 30%; % survivors (lethal adrenaline dose; 0.5 mg/Kg per os, 24 hours after administration): 20%
